Laboratory results from patent publication US20190365680A1, “USE OF EP4 RECEPTOR ANTAGONISTS FOR THE TREATMENT OF NASH-ASSOCIATED LIVER CANCER” (AskAt Inc., priority 2016, published 2019).

Experiments:
[1] = test system: obesity-induced NASH-associated liver cancer; assay: Obesity-induced (DMBA + high fat diet) NASH-associated mouse liver cancer model: liver tumor development; assay type: in vivo
Protocol: FIG. 1 depicts a mouse model timeline developed by treating with 7,12-dimethylbenz(a)anthracene (“DMBA”), and by feeding with a high fat diet (HFD). Compound A was administered to the mice every day from 19 weeks of age to 30 weeks of age and then euthanized (“Eut”).
FIG. 2 is macroscopic photographs of the liver isolated from the vehicle-treated mice (left side) and Compound A-treated mice (right side). […] Compound A or a vehicle (n=5, each) were treated to the mice every day from 19 weeks of age to 30 weeks of age. Arrowheads identify hepatocellular carcinomas (HCCs).
FIG. 3 depicts the average liver tumor numbers and the relative size distribution (classified as >6 mm, 2-6 mm, ≤2 mm). “NS” means not significant.
C57/BL6 mice were purchased from CLEA Japan Inc. The Tlr2^−/− mice (C57/BL6) were purchased from Oriental Yeast Co. Ltd.
Hematoxylin and eosin staining and immunofluorescence analysis were performed as previously described (Yoshimoto et al., Nature, 2013, 499:97-101).
P values less than 0.05 were considered significant. “NS” indicates not significant.
(§1) This mouse model was developed by treating with DMBA, 7,12-dimethylbenz(a)anthracene, and by feeding a high fat diet (HFD) (NPL 15). […] In this experiment, Compound A 30 mg/kg QD was administered to the mice every day from 19 weeks of age to 30 weeks of age (FIG. 1). As a control, a separate group of mice were treated only with a vehicle and no active ingredient.

[2] = test system: immune cells obtained from mouse livers; conditions: liver; 30 mg/kg QD from 19 to 30 weeks of age; vs vehicle
Protocol: FIG. 5A depicts flow cytometry analysis of immune cells between vehicle-treated mice or Compound A-treated mice. The percentages of total CD11c^hi MHC class II (MHC II)^hi, CD11b^+ CD11c^hi MHC II^hi, or CD103^+ CD11c^hi MHC II^hi cells were analyzed by flow cytometry. Data are represented as means ±SEM.
FIG. 6A depicts the percentages of CD3^+ CD4^+ Foxp3^+, CD3^+ CD4^+ Foxp3^−, CD3^+ CD8^+ cells analyzed by flow cytometry. The ratio of CD8^+ T cells to CD4^+ Foxp3^+ Tregs was calculated. Data are represented as means ±SEM. NS=not significant, *p<0.05, **p<0.01.
In FIG. 7A, the percentages of CD69^+ CD8^+ cells were analyzed by flow cytometry (*p<0.05, **p<0.01).
In FIG. 8A, the percentages of PD-1^+ CD8^+ cells were analyzed by flow cytometry (*p<0.05, **p<0.01).
Immune cells were obtained from mouse livers and were subjected to measuring cytokine production and flow cytometric analysis.
Data were analyzed by unpaired t-test with Welch correction (two-side) or Man-Whitney test (two-side). P values less than 0.05 were considered significant. “NS” indicates not significant.
The impact of EP4 blockage on the prevalence and activation status of immune cells was assessed.

[3] = Body weight in the NASH-associated mouse liver cancer model; assay type: in vivo; conditions: 30 mg/kg QD from 19 to 30 weeks of age; weight at the age of 30 weeks
Protocol: FIG. 4 depicts the average body weight of the vehicle-treated group and Compound A-treated group at the age of 30 weeks. Data are represented as means ±SD.
as §1

## C[C@H](NC(=O)c1cc(Cl)cnc1Oc1cccc(F)c1)c1ccc(C(=O)O)cc1 [Compound A, 4-[(1S)-1-({[5-chloro-2-(3-fluorophenoxy)pyridin-3-yl]carbonyl}amino)ethyl]-benzoic acid]
[1]; C57/BL6 mice, DMBA + HFD, 30 mg/kg QD every day from 19 to 30 weeks of age
  Hepatocellular carcinoma (HCC) development compared to vehicle-treated mice: strongly reduced
[1]; DMBA + HFD mice, treated every day from 19 to 30 weeks of age
  Tumor colony sized more than 6 mm: completely disappeared
[1]; DMBA + HFD mice, treated every day from 19 to 30 weeks of age, n=5
  tumor number in the liver compared to vehicle-treated mice: significantly inhibited
[2]
  frequency of CD4+Foxp3+ regulatory T cells (Tregs): significantly reduced
  frequency of CD8+ T cells: not changed
  frequency of CD11b+ DCs: not changed
  frequency of CD11chi MHC class IIhi dendritic cells (DCs): not changed
  number of CD8+ T cells expressing programmed cell death-1 (PD-1): significantly reduced
  number of CD8+ T cells expressing the activation marker CD69: significantly increased
  population of CD103+ DCs: increased
  ratio of CD8+ T cells to Tregs: increased
[3]
  body weight: did not influence
